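A five-concentration, 48-hour dose response in 96-well plates underlies each endpoint, interpolated linearly between surrounding concentrations. Here, GI50 denotes the concentration required for 50% inhibition of growth. TGI: total growth inhibition.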 A value given as a limit tells only on which side of the number the result lay.

Test systems include SF-539 CNS; ACHN renal; A498 renal; COLO 205 colon; MOLT-4 leukemia; HCT-15 colon; RPMI-8226 leukemia; CCRF-CEM leukemia; OVCAR-5 ovarian; M14 melanoma.
What all share (test): NCI anticancer screen, dose series, 48 h

As to `COc1cc2cc(C(=O)Nc3cc(N)c4ccccc4c3CCCl)[nH]c2c(OC)c1OC`, the GI50 was 0.161 µM in the assay on SF-539 CNS; 0.0184 µM in the assay with ACHN renal; 0.0271 µM in the assay with A498 renal; 0.0694 µM in the assay on COLO 205 colon; 0.0132 µM in the assay on MOLT-4 leukemia; 0.0382 µM in the assay on HCT-15 colon. Also, the GI50 in the assay with RPMI-8226 leukemia is under 0.021 µM; in the assay with CCRF-CEM leukemia it was under 0.005 µM; in the assay with OVCAR-5 ovarian, 0.0533 µM. Further, the TGI is over 50 µM in the assay on SF-539 CNS; 0.13 µM with ACHN renal; 0.19 µM with A498 renal; 0.254 µM in the assay with COLO 205 colon; 0.189 µM in the assay on RPMI-8226 leukemia; 0.188 µM in the assay with CCRF-CEM leukemia. For the same compound, the TGI with OVCAR-5 ovarian came to 2.13 µM.

Take `O=CN1N=C(c2ccc(Cl)cc2)CC1c1cccc(Nc2ccnc3cc(Cl)ccc23)c1` (configuration not stated): the GI50 in the assay with SF-539 CNS is 1.69 µM; in the assay with ACHN renal, 2.64 µM; in the assay on M14 melanoma, 1.55 µM; with A498 renal, 0.977 µM; in the assay with COLO 205 colon, 1.43 µM; in the assay with MOLT-4 leukemia, 1.13 µM. The GI50 was 1.36 µM in the assay on HCT-15 colon, 0.611 µM with RPMI-8226 leukemia, 1.42 µM in the assay with CCRF-CEM leukemia and 9.42 µM in the assay on OVCAR-5 ovarian. The TGI was 5.03 µM with SF-539 CNS; over 100 µM with ACHN renal; 13.5 µM in the assay on M14 melanoma; 8.97 µM in the assay on A498 renal; 4.51 µM in the assay on COLO 205 colon; 11 µM in the assay with MOLT-4 leukemia. Also, the TGI was over 100 µM in the assay on HCT-15 colon, 4.19 µM in the assay with RPMI-8226 leukemia, 23.1 µM in the assay with CCRF-CEM leukemia and over 100 µM in the assay with OVCAR-5 ovarian.

On to `O=C(CC12CC3CC(CC(C3)C1)C2)NCCOCCOCCOCCNC(=O)c1cc2c(o1)C(=O)c1ccccc1C2=O`, for which the GI50 in the assay on SF-539 CNS is 1.44 µM; with ACHN renal, 1.51 µM; in the assay on M14 melanoma, 0.222 µM; in the assay with A498 renal, 1.59 µM; with COLO 205 colon, 1.63 µM; in the assay on MOLT-4 leukemia, 2.02 µM. Also, the GI50 is 1.43 µM in the assay with HCT-15 colon, 1.57 µM with RPMI-8226 leukemia, 2.72 µM in the assay with CCRF-CEM leukemia and 1.75 µM in the assay on OVCAR-5 ovarian. Also, the TGI in the assay on SF-539 CNS worked out at 2.78 µM; with ACHN renal, 3.12 µM; in the assay on M14 melanoma, 0.491 µM; in the assay on A498 renal it was 3.12 µM; with COLO 205 colon it was 3.33 µM; in the assay on MOLT-4 leukemia, 6.22 µM. Besides, the TGI with HCT-15 colon was found to be 3.31 µM; with RPMI-8226 leukemia, 4.61 µM; in the assay on CCRF-CEM leukemia, 20.7 µM; in the assay with OVCAR-5 ovarian, 3.17 µM.

As to `O=C([O][Hg][CH2]C1COCC([CH2][Hg][O]C(=O)c2ccccc2)O1)c1ccccc1` (configuration not stated), the GI50 is 23.7 µM in the assay with SF-539 CNS; 1.91 µM in the assay on ACHN renal; 6.01 µM in the assay with M14 melanoma; 17.1 µM in the assay on A498 renal; 1.88 µM in the assay with COLO 205 colon; 2.96 µM with MOLT-4 leukemia. Besides, the GI50 in the assay on RPMI-8226 leukemia was 2.75 µM; in the assay on CCRF-CEM leukemia it was 0.804 µM; with OVCAR-5 ovarian, 19.2 µM. The TGI with SF-539 CNS stood at 51.8 µM; with ACHN renal, 3.71 µM; in the assay on M14 melanoma it was 19.9 µM; in the assay with A498 renal, 31.2 µM; in the assay with COLO 205 colon it was 3.55 µM; in the assay on MOLT-4 leukemia, 12.5 µM. Also, the figures for the TGI with RPMI-8226 leukemia, with CCRF-CEM leukemia and with OVCAR-5 ovarian were 7.66 µM, 5.08 µM and 35.9 µM, respectively.

On to `O=C1NC2CCC(C2)C1c1ccccc1` (configuration not stated), for which the TGI in the assay with SF-539 CNS, in the assay with ACHN renal, in the assay on M14 melanoma, in the assay on A498 renal, in the assay with COLO 205 colon and with MOLT-4 leukemia was over 100 µM each time. Also, the TGI in the assay with RPMI-8226 leukemia, with CCRF-CEM leukemia and in the assay with OVCAR-5 ovarian was over 100 µM in each case.

As to `Cc1ccc(-c2nc(N)nc3c2nnn3Cc2cccc(CO[C@H]3CCOC3)n2)o1`, the GI50 was over 100 µM with SF-539 CNS; over 100 µM with ACHN renal; over 100 µM in the assay with M14 melanoma; 69.9 µM in the assay on A498 renal; 98.4 µM in the assay on MOLT-4 leukemia; over 100 µM in the assay on HCT-15 colon. Besides, the GI50 in the assay with RPMI-8226 leukemia, in the assay on CCRF-CEM leukemia and with OVCAR-5 ovarian was over 100 µM throughout. In addition, the TGI in the assay with SF-539 CNS, in the assay on ACHN renal, with M14 melanoma, in the assay with A498 renal, in the assay with MOLT-4 leukemia and with HCT-15 colon was over 100 µM each time. Further, the TGI with RPMI-8226 leukemia, with CCRF-CEM leukemia and with OVCAR-5 ovarian was over 100 µM throughout.

Turning to `Cc1cc(C)nc(NS(=O)(=O)c2ccc(Nc3c4ccc(Cl)cc4nc4c(C(=O)Nc5ccc(S(=O)(=O)N=C(N)N)cc5)cccc34)cc2)n1`, the TGI with SF-539 CNS, with ACHN renal, with M14 melanoma, in the assay on A498 renal, with MOLT-4 leukemia and in the assay with HCT-15 colon was over 100 µM throughout. The TGI in the assay with RPMI-8226 leukemia, with CCRF-CEM leukemia and with OVCAR-5 ovarian was over 100 µM throughout.

`COc1ccc2cc3[n+](cc2c1OC)CCc1cc(O)c(O)cc1-3`: the TGI with SF-539 CNS, in the assay on M14 melanoma, with A498 renal, in the assay on COLO 205 colon, in the assay with MOLT-4 leukemia and in the assay with HCT-15 colon was over 100 µM in each case. Besides, the TGI in the assay on RPMI-8226 leukemia, in the assay on CCRF-CEM leukemia and in the assay on OVCAR-5 ovarian was over 100 µM each time.

For the compound `COC(=O)C12CC3CC(C1)CC(C(=O)OC)(C3)C2`, the TGI with SF-539 CNS, with ACHN renal, in the assay with M14 melanoma, in the assay with A498 renal, with MOLT-4 leukemia and in the assay with HCT-15 colon was over 100 µM each time. The TGI in the assay on RPMI-8226 leukemia, in the assay with CCRF-CEM leukemia and in the assay on OVCAR-5 ovarian was over 100 µM in each case.

`Cc1ccc(/C=C/C(=O)c2sc(-c3cccnc3)nc2C)cc1`: the TGI in the assay with SF-539 CNS, in the assay with ACHN renal, in the assay on A498 renal, with COLO 205 colon, in the assay with MOLT-4 leukemia and in the assay on HCT-15 colon was over 100 µM in each case. In addition, the TGI in the assay on RPMI-8226 leukemia, with CCRF-CEM leukemia and in the assay with OVCAR-5 ovarian was over 100 µM each time.

The values are drawn from PubChem BioAssay (NCI).
